According to patent publication US8895069B2, “Drug delivery system using hyaluronic acid-peptide conjugate micelle” (Postech Academy-Industry Foundation, priority 2011, dated 2014):
Ends that are not written are not given here.

Assays:
[1] = test system: retinal and choroidal neovascularization (CNV); assay: Laser-induced retinal and choroidal neovascularization (CNV); assay type: in vivo, Brovin-Norway (BN) male rats; conditions: negative control = 100%; intravitreal 10 μL, peptide concentration 10 mg/ml; 2 weeks after laser; conjugate = higher peptide content
Description: Four groups consisted of a negative control group, a hyaluronic acid test group, an anti-Flt1 peptide (GGNQWFI) (SEQ ID NO: 3) test group, a test group of the hyaluronic acid-peptide conjugate with a higher peptide content as prepared from Preparation Example 3 (HA-GGNQWFI(2)). The anti-Flt1 peptide sample and the hyaluronic acid-peptide conjugate sample were made to have an identical peptide concentration of 10 mg/ml. First, the rat was put under anesthesia by being treated with 0.2 mL of a mixed solution (1:1) of 100 mg/ml of ketamine hydrochloride and 20 mg/ml of xylazine hydrochloride. […] The effect of inhibiting retinal and choroidal neovascularization was determined with a fluorescence microscope analysis using dextran-FITC (MW=40,000) after 2 weeks from the laser-induced damage. After being put under anesthesia, the rat was injected with 500 μL of a dextran-FITC solution (25 mg/mL) at its tail vein, and in 5 minutes, the choroid was separated and observed with a fluorescence microscope equipped with a digital camera (Olympus, Tokyo, Japan). The obtained images were analyzed with Image J program (NIH, Bethesda, Md.).

[2] = Appearance / water solubility in aqueous solution; assay type: physicochemical; conditions: PBS, final peptide concentration 1.25 mg/mL
Description: (§1) The anti-Flt1 peptide (GGNQWFI) (SEQ ID NO: 3) and the hyaluronic acid-peptide conjugate with a lower peptide content as prepared from Preparation Example 3 were dissolved in 4004, of PBS to have a final peptide concentration of 1.25 mg/mL, respectively. The amount of the anti-Flt1 peptide contained in each solution was measured with a changeable UV transilluminator (DUT-260, Core Bio System, Korea) by using 312 nm of light source. The formation of the hyaluronic acid-peptide micelle in an aqueous solution was confirmed by using a transmission electron microscope (TEM) (Hitachi, Tokyo, Japan). For a TEM analysis, 10 μL of the hyaluronic acid-peptide conjugate solution was dropped onto a 300 mesh copper TEM grid with a carbon film and then was dried. The average particle size was calculated out from the diameters obtained from the images of 30 particles.

[3] = test system: corneal neovascularization; assay: Corneal neovascularization after silver nitrate cauterization (Experimental Example 8); assay type: in vivo, Albino Sprague Dawley male rats; conditions: rat cornea, subconjunctival 20 μL; Avastin 10 mg/ml, peptide and conjugate […] peptide; NV control 90.8±5%
Description: All animal tests including this experiment were conducted in compliance with the guidelines of the Catholic University of Korea and the principles of laboratory animal care; NIH publication No. 85-23 revised in 1985.
The rat was put under anesthesia by an intra-peritoneal injection of a mixed solution of 20 mg/kg of ketamine hydrochloride and 2.5 mg/kg of xylazine hydrochloride. […] In 3 days after the cauterization, subconjunctival administration was conducted with 20 μL of each of 4 sample solutions (a normal control group, NV control (neovascularization control: a control group wherein angiogenesis was made to occur and no drug was treated thereon), a solution comprising Avastin (Roche) dissolved in PBS at a concentration of 10 mg/ml, a solution comprising anti-Flt1 peptide (GGNQWFI) (SEQ ID NO: 3) dissolved in PBS at a concentration of 2.5 mg/ml, and a solution comprising the hyaluronic acid-peptide conjugate with a lower peptide concentration obtained from Preparation Example 3 as dissolved in PBS at a concentration of 2.5 mg/ml based on the content of anti-Flt1 peptide). […] The obtained images were subjected to quantitative analysis with Image J program (Ver. 1.38, National Institute of Health, MD).

[4] = test system: vascular hyperpermeability due to diabetic retinopathy; assay: Vascular hyperpermeability due to diabetic retinopathy, streptozotocin, dextran-FITC fluorescence (Experimental Example 10); assay type: in vivo, Sprague Dawley (SD) male rats; conditions: hyaluronic acid test group = 100%; intravitreal 10 μL, peptide 5 mg/ml; four weeks after streptozotocin
Description: Four groups consisted of a hyaluronic acid test group, an anti-Flt1 peptide (GGNQWFI) (SEQ ID NO: 3) test group, a test group of the hyaluronic acid-peptide conjugate with a lower peptide content (with 20 peptides being conjugated per one molecule of HA-TBA) as prepared from Preparation Example 3 (HA-GGNQWFI), and a test group of the hyaluronic acid-peptide conjugate with a higher peptide content (with 28 peptides being conjugated per one molecule of HA-TBA) as prepared from Preparation Example 3(HA-GGNQWFI(2)). The anti-Flt1 peptide sample and the hyaluronic acid-peptide conjugate samples were made to have an identical peptide concentration of 5 mg/ml. First, each rat was injected intraperitonially with 60 mg/kg of streptozotocin dissolved in 10 mM citrate buffer at pH 4.5 in order for diabetes to be induced. In three days after the injection of streptozotocin, the rat was determined to develop diabetes when its serum concentration of glucose was at least 300 mg/dL. In a week after the injection of streptozotocin, 10 μL of each sample solution was injected into the vitroeus body. In four weeks after the injection of streptozotocin, the effect of inhibiting vascular hyperpermeability due to diabetic retinopathy was determined by the fluorescence microscopic analysis with using dextran-FITC (MW=10,000) in the same manner as set forth in Experimental Example 7-1.

[5] = test system: corneal neovascularization; assay: Corneal neovascularization, genistein-loaded micelle (Experimental Example 13); assay type: in vivo, Albino Sprague Dawley male rats; conditions: rat cornea; samples in PBS: Avastin 10 mg/ml, conjugate and micelle 3.2 mg/ml peptide; control group 86%
[6] = TEM particle size of micelle; assay type: physicochemical; conditions: spherical particle, n=30
Description: as §1
For a transmission electron microscope (TEM) (Hitachi, Tokyo, Japan) analysis, 10 μL of the solution of the drug-loaded, hyaluronic acid-peptide conjugate micelle was dropped onto a 300 mesh copper TEM grid with a carbon film and then was dried.

[7] = test system: vascular hyperpermeability due to diabetic retinopathy; assay: Vascular hyperpermeability due to diabetic retinopathy, genistein-loaded micelle (Experimental Example 14); assay type: in vivo, Sprague Dawley (SD) male rats; conditions: normal = 1, negative control 2.54±0.20; Avastin 10 mg/ml; micelle 3.2 mg/ml peptide; four weeks after streptozotocin
Description: First, each rat was injected intraperitonially with 60 mg/kg of streptozotocin dissolved in 10 mM citrate buffer at pH 4.5 in order for diabetes to be induced. In three days after the injection of streptozotocin, the rat was determined to develop diabetes when its serum concentration of glucose was at least 300 mg/dL. In a week after the injection of streptozotocin, 10 μL of each sample solution was injected into the vitroeus body.

| Substance | average intensity of the fluorescence of CNV lesion [1] [%] | appearance in the aqueous solution (water solubility) [2] | average ratio of the neovascular area [3] [%] | average intensity of the fluorescence of retina (dextran-FITC) [4] [%] | average ratio of the neovascular area [5] [%] | average diameter by TEM [6] [nm] | average intensity of the fluorescence of retina relative to normal group (1) [7] |
| --- | --- | --- | --- | --- | --- | --- | --- |
| GGNQWFI [anti-Flt1 peptide, GGNQWFI] | 61.4±4.4 | became turbid | 27±5.7 | 79.0±9.2 | – | – | – |
| HA-GGNQWFI: hyaluronic acid (MW 100 kDa) conjugated with GGNQWFI, 20 peptides per one molecule of HA-TBA (also: conjugated to hyaluronic acid, about 20 peptides per HA) | – | became clear | 17.4±5.6 | 58.4±7.8 | 30 | 234.5±20.6 | 1.58±0.17 |
